Data published in patent US20230116978A1, “METHOD FOR LIBERATING INTRACELLULAR MATERIAL FROM PLANT CELLS” (Deerland Enzymes, Inc., priority 2021, published 2023).

Assays:
[1] = Total antioxidant capacity, Folin-Ciocalteu assay (total phenolics assay); settings: for Total antioxidant capacity: Folin-Ciocalteu, gallic acid reference
Description: Total antioxidant capacity was tested in the Folin-Ciocalteu assay (also known as the total phenolics assay). This assay makes use of the Folin-Ciocalteu reagent to measure antioxidants. The assay is performed by adding the Folin-Ciocalteu's phenol reagent to serial dilutions of extract, thoroughly mixing, and incubating for 5 minutes. Sodium carbonate is added, starting a chemical reaction producing a color. The reaction is allowed to continue for 30 minutes at 37° C. Optical absorbance is measured at 765 nm in a colorimetric plate reader. Gallic acid is used as a reference standard, and the data reported in Gallic Acid Equivalents per gram product.

[2] = system: human polymorphonuclear (PMN) cells; test: ROS formation by inflammatory PMN cells (H2O2-triggered, DCF-DA, flow cytometry); format: cell-based; settings: for effect on ROS formation by PMN cells (anti-/pro-inflammatory), in words: H2O2-triggered ROS
Description: In measuring the effect on free radical formation by inflammatory cells, human polymorphonuclear (PMN) cells were used for testing effects of a product on ROS formation. PMN cells constitute approximately 70% of the white blood cells in humans. PMN cells produce high amounts of ROS upon certain inflammatory stimuli. Natural products may affect PMN cell ROS formation by three different mechanisms: 1. […] Triggering an anti-inflammatory cellular signal, leading to reduced ROS formation; 3. Triggering an immune reaction, leading to enhanced ROS formation. The effects of test products were measured by exposing freshly purified human PMN cells to the test products. During the incubation with a test product, any antioxidant compounds able to cross the cell membrane can enter the interior of the PMN cells, and compounds that trigger a signaling event can do so. Then the cells are washed, loaded with the DCF-DA dye, which turns fluorescent upon exposure to ROS. Formation of ROS is triggered by addition of H2O2. The fluorescence intensity of the PMN cells is evaluated by flow cytometry. The low fluorescence intensity of untreated control cells serves as a baseline and PMN cells treated with H2O2 alone serve as a positive control. […] The testing was performed on cells from a healthy donor. […]

human RBC = test: Cellular antioxidant protection, CAP-e bioassay; format: cell-based; settings: for Cellular antioxidant Protection (CAP-e value): human RBC, AAPH oxidation
Description: Cell-based antioxidant protection was measured via a CAP-e bioassay. […] The CAP-e bioassay was specifically designed to work with natural products and ingredients. The red blood cell (RBC) was used as the model cell type as it is an inert cell type, in contrast to other cell types such as PMN cells. The red blood cell-based assay was developed particularly to be able to assess antioxidants from complex natural products in a cell-based system, as well as help interpret subsequent data from more complex cellular models. Freshly purified human RBC are washed repeatedly in physiological saline, and then exposed to the test products. During the incubation with a test product, any antioxidant compounds able to cross the cell membrane can enter the interior of the RBC. Then the RBC are washed to remove compounds that were not absorbed by the cells, and loaded with the DCF-DA dye, which turns fluorescent upon exposure to reactive oxygen species (ROS). Oxidation is triggered by addition of the peroxyl free radical generator AAPH. The fluorescence intensity is evaluated. The low fluorescence intensity of untreated control cells serves as a baseline, and RBC treated with AAPH alone serve as a positive control for maximum oxidative damage. […] Based on the low fluorescence of the untreated control wells, and the high fluorescence of the cell cultures exposed to oxidative damage, the fluorescence intensity in cell cultures treated with test products prior to exposure to oxidative stress is used to calculate the percent inhibition of cellular oxidative stress.

Cell lysing (human RBC; highest concentration tested) | Compound | Total antioxidant capacity [1] | effect on ROS formation by PMN cells (anti-/pro-inflammatory), in words [2] | total antioxidant capacity, comparison in words [1] | cellular antioxidant protection, comparison in words (human RBC) | Cellular antioxidant Protection (CAP-e value) (human RBC) | effect on ROS formation by PMN cells at the highest/higher doses ([2]; highest or higher doses)
 | CC1=C(/C=C/C(C)=C/C=C/C(C)=C/C=C/C=C(C)/C=C/C=C(C)/C=C/C2=C(C)C(=O)[C@@H](O)CC2(C)C)C(C)(C)C[C@H](O)C1=O [Astaxanthin] | 2 mg GAE per gram | less anti-inflammatory capacity than the SOLARPLAST® post-aqueous fraction |  |  |  | 
Cell lysing occurred | N[C@@H](CCC(=O)N[C@@H](CS)C(=O)NCC(=O)O)C(=O)O [L-glutathione, reduced] | 153 mg GAE per gram | less anti-inflammatory capacity than the SOLARPLAST® post-aqueous fraction | had more antioxidant capacity than SOLARPLAST® | had more antioxidant capacity than SOLARPLAST® | 619 μM GA/gram | robust increase in ROS formation
 | Oc1ccc(C=Cc2cc(O)cc(O)c2)cc1 [Resveratrol] |  | considerably more anti-inflammatory capabilities than any of the fractions of SOLARPLAST® |  | had more antioxidant capacity than SOLARPLAST® | 235 μM GA/gram | 
